Here are results for two compounds from US20250281424A1 (New York Blood Center, Inc, priority 2020, published 2025).

Series [1] in a line: Mouse microsome stability. The format is in vitro ADME. As to conditions: for half-life at 0.5 μM: Mouse microsomes, compound conc = 0.5 μM, n = 1, read-out: Mouse microsome stability Half life t1/2; for intrinsic clearance in mouse microsome assay / stability in mouse microsome assay: mouse microsomes. An excerpt:
(§1) Certain exemplified compounds were examined for ADMET (absorption, distribution, metabolism, excretion and toxicity) profiling using conventional assays with the results shown in the Tables 3A-3C below.

Series [2] in a line: Kinetic solubility pH 7.4. The format is physicochemical.
Description: as §1

Series [3] in a line: Pharmacokinetics after IV bolus in CD-1 mice. In kind it is in vivo. On the procedure: PK parameters were measured and reported in Table 4 as follows: C0 represents concentration in ng/ml at t=0 min; AUC0-last represents area under the curve for t=0 min to last time point; AUC0-∞ represents area under the curve for t=0 min to infinity.
Series [4] concerns Heparin-PF4-KKO mice. Put plainly: In vivo activity, heparin-PF4-KKO induced thrombocytopenia (mouse model of HIT). The protocol: Heparin-PF4-KKO mice that were induced to thrombocytopenia were administered the compound of Example 1. The dosing regimen was guided by the PK results in Table 4 (see Example A6). At T0hr, 5 mg/kg of Compound 1 was given by retro-orbital injection. 1000 units/kg heparin was injected subcutaneously at T3hr. At T4hr, 20 mg/kg of KKO antibody was administered by retro-orbital injection. Also at T4hr, an additional 5 mg/kg of the compound was injected intraperitoneally. Platelet count was measured at T8hr.

The nature of series [5]: Experimentally determined log D. In kind it is physicochemical.
Series [6] in a line: Experimentally determined pKa. In kind it is physicochemical.
Series [7] is described as follows: Plasma protein binding (PPB, mouse). Particulars: mouse, plasma; read-out: PPB mouse (% bound) (converted). The format is in vitro ADME.
Description: as §1

In series [8] the test system is plasma protein. Put plainly: Plasma protein binding (PPB, mouse). The format is in vitro ADME.
Description: as §1

[9] abbreviates: pH 7.4, aqueous buffer, kinetic from dmso stock.
[10] abbreviates: mouse, plasma, CD-1 mice, 1 mg/kg IV bolus.

Structures are written as SMILES. In brackets after ≈: the same amount, converted by molar mass. Read-outs that look alike come from different tables or passages of the source. A value given as a limit tells only on which side of the number the result lay.

Usually solubility (kinetic) stands for the concentration staying in solution when a stock, usually in DMSO, is diluted into the medium. The term clearance denotes a measure of how efficiently the substance is removed, as volume per time. For orientation: AUC(0-inf) means total exposure, with the tail of the curve extrapolated. A word on the AUC(0-t): it is exposure summed from dosing to a finite time, without extrapolation to infinity. A low value points to less exposure. For orientation: logD means the decadic logarithm of the distribution of all forms, ionised or not, between an organic phase and buffer at a given pH. For orientation: pKa means the pH at which an ionisable group is half protonated. Higher therefore signals a weaker acid or stronger base. For the compound `CC(=O)C1C(=O)c2ccc(C(=O)c3ccc4c(c3)C(=O)C(C(C)=O)C4=O)cc2C1=O` (stereo not shown) [Example 1, 5,5′-carbonylbis(2-acetyl-1h-indene-1,3(2h)-dione)], in series [1], the half-life at 0.5 μM is more than 2.42 h, the “intrinsic clearance in mouse microsome assay” value is “low intrinsic clearance” and the “stability in mouse microsome assay” value is listed as “excellent stability”. Moreover, in series [2] (pH 7.4), the solubility (kinetic) is reported as more than 200 µM. For the same compound, the kinetic solubility in series [2] (setting [9]) was more than 200 µM. Moreover, the “time the concentration was sustained above 1 μM” value in series [3] (1 mg/kg, CD-1 mice (FIG. 5)) was “greater than 4 hours”. In series [3] (CD-1 mice, 1 mg/kg IV), the “clearance” value is “low clearance”; the “half-life” value is given as “long half-life”; the “volume of distribution” value is “low clearance and volume of distribution”. In series [3] (setting [10]), this compound came in with an AUC(0-inf) of 9350 ± 778 ng·h/mL and an AUC(0-t) of 9190 ± 704 ng·h/mL. For the same compound, the half-life in series [3] (mouse, plasma, CD-1 mice, 1 mg/kg IV bolus, average of 3 mice, read-out: t1/2 (converted)) is 4.59 ± 0.584 h. Besides, the C0 in series [3] (mouse, plasma, CD-1 mice, 1 mg/kg IV bolus, concentration at t=0 min) was found to be 15100 ± 2070 ng/mL. Moreover, in series [3] (mouse, plasma, CD-1 mice, 1 mg/kg IV bolus, read-out: Clearance), the clearance is 1.79 ± 0.147 mL/min/kg. In series [3] (mouse, plasma, CD-1 mice, 1 mg/kg IV bolus, read-out: Volume of distribution (Vdss)), the Vd amounted to 0.448 ± 0.0121 L/kg. Besides, the “tolerability” value in series [4] (mice, 5 mg/kg IV and IP doses) was “tolerated the 5 mg/kg IV and IP doses of the compound well”. For the same compound, the “heparin-PF4-KKO induced thrombocytopenia in vivo” value in series [4] (mouse model of HIT (FIG. 4)) is “reduces heparin-PF4-KKO induced thrombocytopenia in vivo”. Also, the “platelet counts at 4 hr, remaining mouse” value in series [4] (one of the four mice) was “only a little higher than DMSO controls”. In series [4] (three of the four mice, 5 mg/kg retro-orbital at T0hr + 5 mg/kg IP at T4hr), the “platelet counts 4 hr after KKO administration” value is > 80 % of baseline. This compound displayed a logD in series [5] of 0.53. In series [6], the pKa is 1.99.
On to `CCOC(=O)C1C(=O)c2ccc(C(=O)c3ccc4c(c3)C(=O)C(C(=O)OCC)C4=O)cc2C1=O` (stereo not shown) [Example 3, diethyl 5,5′-carbonylbis(1,3-dioxo-2,3-dihydro-1h-indene-2-carboxylate)], for which, in series [1], the half-life at 0.5 μM was more than 2.42 h, the “intrinsic clearance in mouse microsome assay” value was “low intrinsic clearance” and the “stability in mouse microsome assay” value is listed as “excellent stability”. For the same compound, the fraction unbound in series [7] is 0.043. The “protein binding” value in series [8] is on record as “high protein binding”. In addition, the “aqueous solubility” value in series [2] is reported as “good aqueous solubility”. Moreover, the solubility (kinetic) in series [2] (setting [9]) is 88.2 µM (≈ 40.8 µg/mL).
